In patent EP0319576B1, “PROSTAGLANDIN DERIVATIVES, PROCESSES FOR PREPARING THEM AND PHARMACEUTICAL COMPOSITIONS CONTAINING SAID DERIVATIVES” (IBI- Istituto Biochimico Italiano Giovanni Lorenzini S.p.A., priority 1987, dated 1988):

Assays:
[1] = system: Acetyl salicyl-ic acid + HCl; test: Cytoprotective activity in the rat, acetylsalicylic acid + HCl; format: in vivo; conditions: read-out: Cytoprotective activity DE50, Acetyl salicyl-ic acid + HCl
Description: (§1) iv) Cytoprotective activity in the rat
(§2) The tests were carried out according to what has been described in literature: • 1 (A.Robert et al. Gastroenterology, 77, 433 (1979)) (Table 4) • 2 (Szabo et al. Sciene 214 (200) (1981)) (Table 4)

Oral LD50 in the rat = conditions: in vivo
Ethanol (1) +NEM = test: Cytoprotective activity in the rat, Ethanol + NEM; format: in vivo; conditions: read-out: Cytoprotective activity DE50, Ethanol (1) +NEM
Description: as §1, §2

NaOH (2) 0.2 N = test: Cytoprotective activity in the rat, NaOH 0.2 N; format: in vivo; conditions: read-out: Cytoprotective activity DE50, NaOH (2) 0.2 N
Description: as §1, §2

NaCl (2) 25% = test: Cytoprotective activity in the rat, NaCl 25%; format: in vivo; conditions: read-out: Cytoprotective activity DE50, NaCl (2) 25%
Description: as §1, §2

SMILES: CCCCCCC1CCC(N)C1CCCCCCC(OCC)OCC (centres unmarked) [IBI-P-01053, 3-hexyl-2-(6-diethoxymethyl-hexyl)-cyclopentyl amine]
- ED50 [1]: 252 mg/kg
- LD50 (Oral LD50 in the rat): 3000 mg/kg
- ED50 (Ethanol (1) +NEM): 7 mg/kg
- ED50 (NaOH (2) 0.2 N): 6 mg/kg
- ED50 (NaCl (2) 25%): 17 mg/kg

SMILES: CCCCCCC1CCCC(N)C1CCCCCCC(=O)O (centres unmarked) [IBI-P-05006, 3-hexyl-2-(6-carboxy-hexyl)-cyclohexyl-amine]
- ED50 [1]: > 200 mg/kg
- LD50 (Oral LD50 in the rat): 3000 mg/kg
- ED50 (Ethanol (1) +NEM): 20 mg/kg
- ED50 (NaOH (2) 0.2 N): 9 mg/kg
- ED50 (NaCl (2) 25%): 25 mg/kg

SMILES: CCCCCC1C(N)CCC1CCCCCCCCO (centres unmarked) [IBI-P-10007, 2-pentyl-3-(8-hydroxy-octyl)-cyclopentyl amine]
- ED50 [1]: 165 mg/kg
- LD50 (Oral LD50 in the rat): 3000 mg/kg
- ED50 (Ethanol (1) +NEM): 8 mg/kg
- ED50 (NaOH (2) 0.2 N): 4 mg/kg
- ED50 (NaCl (2) 25%): 4 mg/kg

SMILES: CCCCCCC1CCC2(NC(=O)NC2=O)C1CCCCCCC(=O)O (centres unmarked) [IBI-P-01028, 5-spiro-[2-(6-carboxy-ethyl)-3-hexyl-cyclopentyl]-imidazoline-2,4-dione]
- ED50 [1]: 78 mg/kg
- LD50 (Oral LD50 in the rat): 2000 mg/kg
- ED50 (Ethanol (1) +NEM): 30 mg/kg
- ED50 (NaOH (2) 0.2 N): 18 mg/kg
- ED50 (NaCl (2) 25%): 15 mg/kg
